In patent US20040142405A1, “Method of detecting drug resistance” (priority 2003, published 2004):
Read-outs that look alike come from different tables or passages of the source.

Experiments:
[1] = biological target: T1, HIV-1 viral protease (PR) (Human immunodeficiency virus type 1 group M subtype B, UniProt P04585); assay type: biochemical; conditions: for interfacial electron transfer resistance Ret after biocatalyzed precipitation of (20) (curve f): translation in the presence of saquinavir 1×10^−4 M, 10 min precipitation, non-inhibited mixture 2500 Ω
Protocol: (§1) A conventional three electrode cell, consisting of the modified Au electrode, a glassy carbon auxiliary electrode isolated by a glass frit, and a saturated calomel electrode (SCE) connected to the working volume with a Luggin capillary, was used for the electrochemical measurements. The cell was positioned in a grounded Faradaic cage. Impedance measurements were performed using an electrochemical impedance analyzer (EG&G, model 1025) and potentiostat (EG&G, model 283) connected to a computer (EG&G Software Power Suite 1.03 and 270 for impedance measurements). All electrochemical measurements were performed in 0.1 M phosphate buffer, pH 7.0, as a background electrolyte solution. Faradaic impedance measurements were performed in the presence of 10 mM K3[Fe(CN)6]/K4Fe(CN)6] (1:1) mixture, as a redox probe. Impedance measurements were performed at a bias potential of 0.17 V versus SCE using alternating voltage, 10 mV, in the frequency range of 100 mHz to 10 kHz. The impedance spectra were plotted in the form of complex plane diagrams (Nyquist plots).
The electrodes were rinsed with water, dried, and soaked in a 10 mM solution of the DSP-active ester in DMSO for 30 min at room temperature. The functionalized electrodes were rinsed with DMSO and water and incubated in a 100 μg·m]L^−1 solution of protein G, for 90 min in a phosphate buffer saline solution, pH=7.4, at room temperature, to couple covalently protein G lysine residues to the functionalized electrodes. The protein G-functionalized electrodes were then allowed to interact with the Fc fragment of the anti-CA-antibody, 1 μg·mL^−1, 30 min at room temperature, to yield the sensing interfaces.
(§2) The antibody-functionalized electrode was interacted with varying concentrations of the Gag polyprotein generated in the translation mixture for 60 min. diluted to 1.0 mL in phosphate-buffered saline (PBS) solution, 0.1 M, pH 7.0, at room temperature. After attachment of the respective polyprotein to the sensing interface, the electrode was incubated in the solution of anti-MA or anti-CA (sources were 200-fold diluted) for 30 min at room temperature. After attachment to the respective antibody, the electrode was incubated either in a goat-anti-rabbit-HRP conjugate solution (2.5 μg·mL^−1), for the MA analysis, or in a goat-anti-mouse-HRP conjugate solution (2.5 μg·mL^−1) for the CA analysis, for 30 minutes at room temperature. 4-Chloro-1-naphthol (1) (FIG. 1D) was dissolved initially in ethanol and then the ethanolic stock solution was diluted with 0.1 M phosphate buffer, pH 7.0, to yield the developing solution that included 1×10^−3 M (1) and 2% (v/v) ethanol. The modified electrodes consisting of the HRP-tagged antibody-functionalized electrodes were incubated in the developing solution of (1) for a fixed and controlled time of 10 minutes at room temperature to stimulate the precipitation of (2) (FIG. 1D).
(§3) After incubation of the respective electrodes in the probe solution, the electrodes were rinsed with 0.1 M phosphate buffer, pH 7.0, and introduced into the electrochemical cell for their analyses by Faradaic impedance spectroscopy. It should be noted that after each step the electrode was rinsed thoroughly with buffer solution, pH 7.0, to eliminate any non-specific adsorbates on the electrode. In the microgravimetric quartz crystal microbalance measurements, the various modification and amplification steps, including the rinsing steps, were performed in the flow cell of the QCM apparatus.
(§4) All the RNA preparations were translated in vitro using the “Biotin in vitro translation kit” (Roche 1559951) in the absence or presence of Saquinavir (Ro 31-8959). Reactions were performed in 50 μL, according to the manufacturer's instructions, using DEPC-treated water. The PR inhibitor Saquinavir was dissolved in 1M NaCl in the DEPC-treated water, and was added to reaction mixtures before starting the synthesis.

[2] = biological target: T1, HIV-1 viral protease (PR); assay type: biochemical
Protocol: as §2, §3, §4

[3] = biological target: protease encoded by the wild-type viral RNA (HIV-1 PR) (Human immunodeficiency virus type 1 group M subtype B, UniProt P04585); assay type: biochemical
Protocol: as §1
The antibody-functionalized electrode was interacted with varying concentrations of the Gag polyprotein generated in the translation mixture for 60 min. diluted to 1.0 mL in phosphate-buffered saline (PBS) solution, 0.1 M, pH 7.0, at room temperature. […]

[4] = biological target: T2, G48V mutated PR (Human immunodeficiency virus type 1 group M subtype B, UniProt P12497, G536V); assay: Four-path impedance analysis (FIG. 5) of proteins translated from RNA of the HIV-1 G48V mutant; assay type: biochemical, HIV-1 (NL4-3)
T2 construct: a virus encoded protease (PR) which is one of the individual proteins making up the uncleaved polyprotein; made in house; host or cells: cell-free in vitro translation (Biotin in vitro translation kit, Roche 1559951) of RNA from the media of cultured cells infected with HIV-1 G48V
Protocol: as §1
as §2, with “The modified electrodes consisting of the HRP-tagged antibody-functionalized electrodes were incubated in the developing solution of (1) for a fixed and controlled time of 10 minutes at room temperature to stimulate the precipitation of (2) (FIG. 1D).” left out

[5] = biological target: viral PR (Human immunodeficiency virus type 1 group M subtype B, UniProt P04585); assay type: biochemical; conditions: RNA of HIV-1 infected cultured cells, increased concentrations of saquinavir, FIG. 8
Protocol: as §2
All the RNA preparations were translated in vitro using the “Biotin in vitro translation kit” (Roche 1559951) in the absence or presence of Saquinavir (Ro 31-8959). […]

[6] = tested on: viral PR from patients' plasma HIV RNA; assay: Four-path impedance analysis (FIG. 5) of RNA extracted from blood samples of AIDS patients treated with saquinavir; assay type: biochemical; conditions: for α = Ret^B(1)/Ret^A(1): CA units, anti-CA; for β = Ret^B(2)/Ret^A(2): MA units, anti-MA, β≈1.0 drug resistant, β<1 drug sensitive
Protocol: Plasma was obtained from consenting donors following removal of blood cells by centrifugation for 5 minutes at 3,000 rpm. The plasma was 3-fold diluted with PBS, and viral particles were peletted by centrifuging the volume for 45 minutes at 45,000 rpm in a Backman centrifuge (SW 50.1 rotor). The viral pellets were suspended in 1 mL TRIzol reagent (Gibco BRL) containing 5-10 μg of tRNA (Sigma) as carrier and RNA was extracted according to the manufacturer's instructions.
All the RNA preparations were translated in vitro using the “Biotin in vitro translation kit” (Roche 1559951) in the absence or presence of Saquinavir (Ro 31-8959). Reactions were performed in 50 μL, according to the manufacturer's instructions, using DEPC-treated water. The PR inhibitor Saquinavir was dissolved in 1M NaCl in the DEPC-treated water, and was added to reaction mixtures before starting the synthesis. The reaction mixtures were incubated for 90 min at 30° C. and the reactions were halted by placing in ice or storage at −75° C. until further use in the electrochemical measurements.
An extracted RNA specimen 100 is subdivided into two samples, A 102 and B 104. While sample A is subjected to in vitro translation in the presence of the PI, sample B is translated in the absence of the PI. Each of the translation mixtures is then further divided into two equal sub-samples, sample A into sub-samples A(1) 106 and A(2) 108, and sample B into sub-samples B(1) 110 and B(2) 112. The sub-samples A(1) and B(1) are subjected to the analysis of the total CA units using anti-CA, according to FIG. 1B, route (ii). The sub-samples A(2) and B(2) utilize the anti-MA antibody to assess content of polyprotein in the respective samples, according to FIG. 1A and FIG. 1B, route (i). Note that the ratio of the interfacial electron transfer resistances generated upon the precipitation of the precipitate (20) in sub-samples A(2) and B(2) reflect the content of polyprotein generated under PR inhibition vs. the unprocessed (=unhydrolyzed) polyprotein in the system.
The ratio of electron transfer resistances of paths A(1) and B(1) should be independent of the PI, and its value should be ≈1. This ratio provides an internal standard for the effectiveness of translations in the entire set of experiments. Thus, the four-path analysis scheme of the mRNA translation processes eliminates the background signal of unprocessed polyproteins in the absence of the inhibitor. The assay also abrogates the difference in the affinities of anti-CA and anti-MA to the respective antigens. Since the original sample is subdivided into equivalent sub-samples prior to translations, the problem of different RNA contents in analysis paths is cancelled out.
The analysis scheme outlined in FIG. 5 was applied to detect drug resistance in AIDS patients, treated with saquinavir. In this process, we expect that the analysis of the CA-units by the anti-CA antibodies will lead to an electron transfer resistance ratio of paths A(1) 106 and B(1) 110 in FIG. 5, that corresponds to α=Ret^B(1)/Ret^A(1)≈1.0 whereas the ratio of electron transfer resistance analyzing the MA-units with the anti-MA antibody of paths B(2) 112 and A(2) 108 in FIG. 5 should reveal the value β=Ret^B(2)/Ret^A(2)≈1.0 for drug resistant patients, and β<1 for drug sensitive patients.

[7] = tested on: AIDS patients; conditions: cited from earlier work
[8] = translation of bacterial RNA in the presence of saquinavir 1×10^−4 M

CC(C)(C)NC(=O)[C@@H]1C[C@@H]2CCCC[C@@H]2CN1C[C@@H](O)[C@H](Cc1ccccc1)NC(=O)[C@H](CC(N)=O)NC(=O)c1ccc2ccccc2n1 [saquinavir]
ΔRet upon precipitation, non-inhibited mixture lower than inhibited translation mixture ([1]; identical quantities of mRNA, absence vs presence of Saquinavir): 4 fold
increase in interfacial electron transfer resistance ΔRet upon the precipitation of (20) ([1]; inhibited translation mixture, non-inhibited mixture ΔRet=500 Ω): ≈ 2000 Ω
interfacial electron transfer resistance Ret after biocatalyzed precipitation of (20) (curve f) [1]: 5000 Ω
interfacial electron transfer resistance Ret after biocatalyzed precipitation of (20) (curve f) ([1]; listed as Saquinavir): ca. 5100 Ω
electron transfer resistance Ret after addition of anti-anti-MA-HRP conjugate (curve e) [1, 8]: 3000 Ω
interfacial electron-transfer resistance Ret after association of anti-MA-Ab (curve d) [1, 8]: 2800 Ω
interfacial electron-transfer resistance after binding of the Gag polyprotein to anti-CA-Ab (curve c) [1, 8]: 2100 Ω
Anti-MA Δf [2]: −80 Hz
Anti-anti MA/HRP Δf [2]: −140 Hz
Precipitation of (2) Δf [2]: −100 Hz
frequency change upon treatment of the surface with the translated proteins [2]: −50 Hz
ratio Ret^B(2)/Ret^A(2) [3]: 0.43
electron transfer resistance Ret, path A(2), anti-MA analysis (curve d) ([3]; wild type virus, saquinavir 1×10^−4 M, non-inhibited path B(2) Ret=6): 14 kω
effect of the inhibitor on the protease activity [4]: no effect of the inhibitor is observed
interfacial resistance Ret, path A(2) with the inhibitor (curve d) ([4]; identical to path B(2) without inhibitor): ≈ 11 kΩ
ratio Ret^B(2)/Ret^A(2) ([4]; without vs with inhibitor): 1
interfacial electron transfer resistance as the concentration of the inhibitor increases [5]: enhanced
α = Ret^B(1)/Ret^A(1) ([6]; Patient # 1): 1.17 ± 0.03
β = Ret^B(2)/Ret^A(2) ([6]; Patient # 1): 0.87 ± 0.04
α = Ret^B(1)/Ret^A(1) ([6]; Patient # 2): 1.07 ± 0.03
β = Ret^B(2)/Ret^A(2) ([6]; Patient # 2): 1.1 ± 0.04
α = Ret^B(1)/Ret^A(1) ([6]; Patient # 3): 1.04 ± 0.03
β = Ret^B(2)/Ret^A(2) ([6]; Patient # 3): 0.75 ± 0.04
α = Ret^B(1)/Ret^A(1) ([6]; Patient # 4): 1.10 ± 0.03
β = Ret^B(2)/Ret^A(2) ([6]; Patient # 4): 0.79 ± 0.04
α = Ret^B(1)/Ret^A(1) ([6]; Patient # 5): 1.0 ± 0.03
β = Ret^B(2)/Ret^A(2) ([6]; Patient # 5): 1.07 ± 0.04
clinical condition under treatment ([7]; all other patients (#1, #3, #4), subjective statements of the physicians): balanced conditions
clinical response to treatment ([7]; patients #2 and #5, subjective statements of the physicians): did not react to the treatment
